# In patent US20130029970A1 (priority 2009, published 2013):
# pEC50, pIC50: −log10 of the molar value. Like-named read-outs stand apart in the source and are kept apart here.
# Columns and labels:
# [1] = target: T1, recombinant human cannabinoid receptor CB2 (Homo sapiens, UniProt P34972); test: Cannabinoid receptor radioligand binding assay, [3H]-CP 55,940 displacement, hCB2
# T1 construct: (cDNA clone) CNR0200000
# Procedure: (§1) Membranes were isolated from transfected cells as follows. Monolayers of cultured cells were washed twice with phosphate-buffered saline (PBS). […] Homogenates were centrifuged 10 minutes at 1000×g at 4° C. The supernatant was collected and was centrifuged for 1 hour at 40,000×g. The supernatant was then decanted and the resulting pellet was re-suspended in 20 mM HEPES, pH 7.4, 5 mM MgCl2, 1 mM EDTA, 10% sucrose with complete cocktail protease inhibitors. Protein concentration of membrane suspensions were measured by Bradford Protein Assay using bovine serum albumin as the standard (BioRad catalog #500-0006). Protein concentrations of membrane suspensions were adjusted with the final buffer in the range of 5 to 10 mg/mL and were stored at −80° C. until further use.
# A rapid filtration technique using Millipore FB filter plates (Catalog #MADVNOB) and filtration apparatus (Millipore system Catalog MAVM0960R) with vacuum aspiration was used to harvest and rinse labeled membranes (8 times with 0.2 mL of chilled binding buffer). […] Binding data were analyzed using GraphPad Prism (GraphPad Software, Inc. San Diego, Calif.).
# [2] = target: T2, recombinant human cannabinoid receptor CB1 (Homo sapiens, UniProt P21554); test: Cannabinoid receptor radioligand binding assay, [3H]-CP 55,940 displacement, hCB1
# T2 construct: (cDNA clone) CNR01L000
# Text: (§2) Stable, HEK-293-derived cell lines that recombinantly express hCBI or hCB2 were established. In brief, the clone hCB1 (CNR IL) or hCB2 (CNR2) was transfected into human embryonic kidney cells (HEK-293) using Lipofectamine 2000 (Gibco, Cat#11668-019) according to the manufacturer's protocol. Transfected clones were isolated by single colony purification and clones were screened for receptor expression using a whole cell, ^3H—CP 55,940 radioligand binding assay. HEK-293 stable cells were maintained in Dulbecco's modified Eagles medium (DMEM) containing 10% fetal bovine serum, 2 mM L-glutamine and 0.5 mg/mL G-418.
# (§3) Membranes were isolated from transfected cells as follows. Monolayers of cultured cells were washed twice with phosphate-buffered saline (PBS). Cells were scraped into 20 mM HEPES, pH 7.4, 10 mM EDTA containing complete cocktail protease inhibitors (Roche, Catalog #11 697 498 001) and were homogenized by an electric-powered mechanical probe homogenizer (Omni GLH; probe G7-195S) for 40 seconds at 7000 rpm. Homogenates were centrifuged 10 minutes at 1000×g at 4° C. The supernatant was collected and was centrifuged for 1 hour at 40,000×g. The supernatant was then decanted and the resulting pellet was re-suspended in 20 mM HEPES, pH 7.4, 5 mM MgCl2, 1 mM EDTA, 10% sucrose with complete cocktail protease inhibitors. Protein concentration of membrane suspensions were measured by Bradford Protein Assay using bovine serum albumin as the standard (BioRad catalog #500-0006). Protein concentrations of membrane suspensions were adjusted with the final buffer in the range of 5 to 10 mg/mL and were stored at −80° C. until further use.
# Radioligand binding assays were performed by incubating membranes (2-10 μg protein) prepared from HEK-293 cells expressing recombinant human cannabinoid receptors, CB1 or CB2, at room temperature with 0.5 nM cannabinoid receptor agonist, [^3H]-CP 55,940 (Perkin Elmer, catalog #NET1051) in 0.2 mL of binding buffer (50 mM Tris-HCl, pH 7.5, 5 mM MgCl2, 2.5 mM EDTA) and 0.1% fatty acid free bovine serum albumin (Sigma Cat. #A0821) for 90 minutes. A rapid filtration technique using Millipore FB filter plates (Catalog #MADVNOB) and filtration apparatus (Millipore system Catalog MAVM0960R) with vacuum aspiration was used to harvest and rinse labeled membranes (8 times with 0.2 mL of chilled binding buffer). The radioactivity bound to the filters was counted with 0.05 mL of liquid scintillant (UltraGold MV, PerkinElmer catalog #6013159) in a scintillation counter (Perkin Elmer Microbeta instrument). Nonspecific binding was determined in the presence of unlabeled 1 μM CP 55,940 (Sigma Aldrich, catalog #C1112). Binding data were analyzed using GraphPad Prism (GraphPad Software, Inc. San Diego, Calif.).
# [3] = target: T3, human CB1 receptors (Homo sapiens, UniProt P21554); test: cAMP assay in HEK-293 cells, hCB1 agonist; assay type: cell-based; conditions: inhibition of forskolin-stimulated cAMP, HEK-293 cells
# T3 construct: (cDNA clone) CNR01L000
# Text: as §2
# (§4) Functional assays which monitor G-protein coupled receptor or downstream cellular responses can be used to characterize potential CB1 receptor and/or CB2 receptor agonist or antagonist activities. Direct activation (or inhibition of activation) can be monitored using a GTPγS assay (membrane-based assay) or cAMP assay (whole cell-based assay).
# (§5) cAMP assays were performed in HEK-293 cells stably expressing human CB1 or CB2 receptors. For cannabinoid receptor functional assays measuring agonist effects on cellular cAMP levels, monolayers of cultured cells were harvested with enzyme-free PBS-based cell dissociation buffer (Gibco, Cat#13151-04). Cells suspensions were centrifuged and the cells were washed once with PBS, were centrifuged again, and the cells were re-suspended in HBSS (Hank's Balanced Salt Solution, Cellgro, Cat #21-022-CV) solution containing 10 mM HEPES and 0.1% fatty acid free BSA (Sigma, Cat #A0281). Cell suspensions were prepared at 1,500,000 cells per ml. Stock solutions of test substances (10 mM) in DMSO were diluted to 1 mM using 30% DMSO as diluent. Test substances of solutions (1 mM) were further diluted down to 3× of final assay concentrations in the above HBSS buffer containing 0.1% BSA in the presence of 90 uM forskolin (Sigma Cat#F6886). To perform the assay, 20 uL of cell suspension (1,500,000 cells/mL) were added to each well in 96 well plate and treated with 10 uL test substance solution diluted as described above. Cells and compounds were incubated at 37° C. for 30 minutes. Cells were lysed and cAMP concentration was measured using DiscoveRx −XS+ cAMP assay kit (DiscoveRx Corporation Ltd., Fremont, Calif., USA, Cat #90-0075-03), following the manufacturer's protocol. GraphPad Prism software was used to calculate EC50 values using sigmoidal dose response curve fitting. The maximal amount of cAMP produced by forskolin was defined as 100%. CB1 or CB2 agonists reduced forskolin-stimulated cAMP signaling. The EC50 value of an agonist compound was defined as the concentration at which 50% of the forskolin-stimulated cAMP synthesis was inhibited.
# [4] = target: T4, human CB2 (hCB2) (Homo sapiens, UniProt P34972); test: 35S GTPγS binding assay, hCB2 agonist; assay type: biochemical
# T4 construct: (cDNA clone) CNR0200000
# Procedure: (§6) cDNA expression clones for human CB1 (hCB1, Genbank Accession No. AY225225) and human CB2 (hCB2, Genbank Accession No. AY242132) expressed in vector pcDNA3.1+ were purchased from UMR cDNA Resource Center, Rolla, Mo. (Clone ID CNR01L000 for hCB1; CNR0200000 for hCB2).
# as §1, §4
# (§7) ^35S GTPγS binding assays were performed by incubating recombinant cell membranes prepared above (5 μg) in the presence of scintillation proximity assay beads (SPA beads, Catalog #RPNQ0252 GE Healthcare, Buckinghamshire, England) in GTPγS binding buffer [50 mM HEPES (pH 7.4), 100 mM NaCl, 5 mM MgCl2, 0.001% saponin (Sigma catalog #S4521)] supplemented with 20 uM GDP (Sigma catalog #G7127) in the presence or absence of test compound. The reaction was carried out in 96-well microplates with 0.1 nM [^35S]GTPγS (specific activity=1250 Ci/mmol; Perkin Elmer catalog #NEG030X250UC) in a final volume of 100 uL. After a 90 min room temperature incubation, the reaction was analyzed using a scintillation counter (Perkin Elmer Microbeta instrument). Binding data were analyzed using GraphPad Prism.
# [5] = target: T5, human CB2 receptors (Homo sapiens, UniProt P34972); test: cAMP assay in HEK-293 cells, hCB2 agonist; assay type: cell-based
# T5 construct: (cDNA clone) CNR0200000
# Procedure: as §4
# as §5, with “For cannabinoid receptor functional assays measuring agonist effects on cellular cAMP levels, monolayers of cultured cells were harvested with enzyme-free PBS-based cell dissociation buffer (Gibco, Cat#13151-04).” left out, “100%.” for “100%. CB1 or CB2 agonists reduced forskolin-stimulated cAMP signaling. The EC50 value of an agonist compound was defined as the concentration at which 50% of the forskolin-stimulated cAMP synthesis was inhibited.”
# [6] = target: T6, human CB1 (hCB1) (Homo sapiens, UniProt P21554); test: 35S GTPγS binding assay, hCB1 agonist; assay type: biochemical; conditions: GTPγS agonist, HEK-293 membranes; read-out: hCB1 EC50 (GTPyS ag)
# T6 construct: (cDNA clone) CNR01L000
# Text: as §6, §2, §3, §4, §7
# T3 sequence (P21554 whole entry): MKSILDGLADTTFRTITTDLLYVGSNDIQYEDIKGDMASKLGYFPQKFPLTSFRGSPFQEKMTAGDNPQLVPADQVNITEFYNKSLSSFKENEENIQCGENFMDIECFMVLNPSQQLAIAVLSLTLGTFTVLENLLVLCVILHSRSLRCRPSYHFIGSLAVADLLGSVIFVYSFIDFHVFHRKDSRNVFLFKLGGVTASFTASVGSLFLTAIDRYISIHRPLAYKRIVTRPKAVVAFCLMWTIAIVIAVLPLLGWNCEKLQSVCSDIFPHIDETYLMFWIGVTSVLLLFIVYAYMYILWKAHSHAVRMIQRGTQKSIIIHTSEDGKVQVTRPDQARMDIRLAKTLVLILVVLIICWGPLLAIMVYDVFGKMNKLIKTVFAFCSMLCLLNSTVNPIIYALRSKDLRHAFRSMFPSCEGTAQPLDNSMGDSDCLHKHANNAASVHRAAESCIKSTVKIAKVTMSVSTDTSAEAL
# T2 sequence (P21554 whole entry): as above
# T4 sequence (P34972 whole entry): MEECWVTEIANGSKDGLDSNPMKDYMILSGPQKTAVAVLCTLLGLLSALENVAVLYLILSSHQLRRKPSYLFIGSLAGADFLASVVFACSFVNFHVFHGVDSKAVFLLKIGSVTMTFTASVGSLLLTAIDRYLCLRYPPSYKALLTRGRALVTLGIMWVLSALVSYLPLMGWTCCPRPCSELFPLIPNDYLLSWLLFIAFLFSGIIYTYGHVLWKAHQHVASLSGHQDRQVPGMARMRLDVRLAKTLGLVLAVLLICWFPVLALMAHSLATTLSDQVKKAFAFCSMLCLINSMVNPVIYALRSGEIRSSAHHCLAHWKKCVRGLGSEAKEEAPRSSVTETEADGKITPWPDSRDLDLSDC
# T1 sequence (P34972 whole entry): as above
# T5 sequence (P34972 whole entry): as above
# T6 sequence (P21554 whole entry): as the sequence (P21554 whole entry) above
SMILES,pIC50 [1],pIC50 [2],"hCB1 EC50 (cAMP ag, nM) [3]",pEC50 [4],"hCB2 EC50 (cAMP ag, nM) ([5]; inhibition of forskolin-stimulated cAMP, HEK-293 cells)","pIC50 ([1]; displacement of 0.5 nM [3H]-CP 55,940, read-out: hCB2 IC50 (CP displ))","pIC50 ([2]; displacement of 0.5 nM [3H]-CP 55,940, read-out: hCB1 IC50 (CP displ))",pEC50 [5],pEC50 [6],"pEC50 ([4]; GTPγS agonist, HEK-293 membranes, read-out: hCB2 EC50 (GTPyS ag))"
"Cc1cc2cc(C(=O)c3cccc(Cl)c3Cl)sc2n1C [Compound 20, (2,3-Dichlorophenyl)(5,6-dimethyl-6H-thieno[2,3-b]pyrrol-2-yl)methanone]",5.00 to 6.00,< 5.00,"NS (NS means “Not Significant,” which means less than 30% agonist activity when compared to the positive control.)",6.00 to 7.00,–,–,–,–,–,–
"COc1ccc(C(=O)c2cc3cc(C)n(CCn4ccnc4)c3s2)cc1 [Compound 67, (6-(2-(1H-Imidazol-1-yl)ethyl)-5-methyl-6H-thieno[2,3-b]pyrrol-2-yl)(4-methoxyphenyl)methanone]",5.00 to 6.00,< 5.00,"NS (NS means “Not Significant,” which means less than 30% agonist activity when compared to the positive control.)",6.00 to 7.00,–,–,–,–,–,–
"COc1ccc(C(=O)c2cc3cc(C)n(CCCN(C)S(C)(=O)=O)c3s2)cc1 [Compound 69, N-(3-(2-(4-Methoxybenzoyl)-5-methyl-6H-thieno[2,3-b]pyrrol-6-yl)propyl)-N-methylmethanesulfonamide]",5.00 to 6.00,< 5.00,"NS (NS means “Not Significant,” which means less than 30% agonist activity when compared to the positive control.)",6.00 to 7.00,–,–,–,–,–,–
"COc1ccc(C(=O)c2cc3cc(C)n(CCN4CCN(S(C)(=O)=O)CC4)c3s2)cn1 [Compound 143, (6-methoxypyridin-3-yl)(5-methyl-6-(2-(4-(methylsulfonyl)piperazin-1-yl)ethyl)-6H-thieno[2,3-b]pyrrol-2-yl)methanone]",–,–,"NS (NS means “Not Significant,” which means less than 30% agonist activity when compared to the positive control.)",–,"NS (NS means “Not Significant,” which means less than 30% agonist activity when compared to the positive control.)",< 5.00,< 5.00,–,–,–
"COc1ccc(C(=O)c2cc3cc(C)n(CCN4CCCC4C(=O)O)c3s2)cn1 (stereo not drawn) [Compound 146, 1-(2-(2-(6-methoxynicotinoyl)-5-methyl-6H-thieno[2,3-b]pyrrol-6-yl)ethyl)pyrrolidine-2-carboxylic acid]",6.00 to 7.00,< 5.00,"NS (NS means “Not Significant,” which means less than 30% agonist activity when compared to the positive control.)",–,–,–,–,6.00 to 7.00,–,–
"COc1ccc(C(=O)c2cc3cc(C)n(CCNCC4CCOCC4)c3s2)cn1 [Compound 149, (6-methoxypyridin-3-yl)(5-methyl-6-(2-((tetrahydro-2H-pyran-4-yl)methylamino)ethyl)-6H-thieno[2,3-b]pyrrol-2-yl)methanone]",< 5.00,< 5.00,"NS (NS means “Not Significant,” which means less than 30% agonist activity when compared to the positive control.)",–,–,–,–,6.00 to 7.00,–,–
"COc1ccc(C(=O)c2cc3cc(C)n(C(=S)SC)c3s2)cc1 [Compound 155, Methyl 2-(4-methoxybenzoyl)-5-methyl-6H-thieno[2,3-b]pyrrole-6-carbodithioate]",–,–,"NS (NS means “Not Significant,” which means less than 30% agonist activity when compared to the positive control.)",–,–,–,–,–,< 5.00,6.00 to 7.00
"COc1ccc(C(=O)c2cc3cc(C)n(CCN4CCC(OC)CC4)c3s2)cn1 [Compound 156, (6-(2-(4-methoxypiperidin-1-yl)ethyl)-5-methyl-6H-thieno[2,3-b]pyrrol-2-yl)(6-methoxypyridin-3-yl)methanone]",–,–,"NS (NS means “Not Significant,” which means less than 30% agonist activity when compared to the positive control.)",< 5.00,–,–,–,–,< 5.00,–
